# From patent US20050154034A1, “Methods of using zonisamide as an adjunctive therapy for partial seizures” (Eisai Co., Ltd., priority 2004, published 2005)
# What was measured:
# [1] = tested on: rat hippocampal slices; conditions: 10-30 μg/mL; cited from earlier work
# [2] = cited from earlier work
# [3] = tested on: sodium channels; conditions: in vitro; cited from earlier work
# [4] = tested on: GABA/benzodiazepine receptor ionophore complex; conditions: in vitro; cited from earlier work
# [5] = tested on: carbonic anhydrase; conditions: fraction of the inhibition of acetazolamide; cited from earlier work
# [6] = Pharmacovigilance review of rhabdomyolysis/CPK elevation in zonisamide-treated patients; type: in vivo, human patients (U.S. and Japan)
# Source text: The pharmacovigilance data that were collected, reviewed and analyzed provided the following information in respect of the incidence of rhabdomyolysis/CPK elevation in the zonisamide-treated patient population. To date, a total of 10 cases fulfill the criteria of potential rhabdomyolysis cases. These 10 cases were reviewed in detail for evaluation of possible safety signals. All 10 cases fulfill serious criteria. Of these 10 cases, seven (7) cases were reported as rhabdomyolysis and three (3) cases were reported as CPK increase.
# Of the seven (7) rhabdomyolysis cases, six (6) are verbatim cases from Dainippon and one (1) originates in the U.S. Of the seven (7) cases, three (3) were pediatric cases and four (4) were adult cases.
# Of the seven (7) rhabdomyolysis cases, two (2) cases have strong confounding factors, but the possibility of zonisamide involvement cannot be completely excluded. Two (2) cases have moderate confounding factors, and zonisamide involvement may be possible.
# Of the three (3) cases of CPK increase, one (1) is a verbatim report from Dainippon, and two (2) originated from the U.S. Of the three (3) cases, two are pediatric patients and one is an adult. Of these three (3) cases, two (2) recovered and the outcome of the third is unknown.
# Of the three (3) cases of CPK increase, one (1) case has strong confounding factors, but the possibility of zonisamide involvement cannot be completely excluded. One (1) case has weak confounding factors, and zonisamide involvement may be possible.
# Estimates of zonisamide exposure, based upon retail and mail order prescriptions, indicate that the number of unique patients taking zonisamide capsules in the U.S. is about 37,276 (total prescriptions per year/average number of prescriptions per patient per year less a calculated percentage decrease based on estimated annual dropouts) in the time between approval in 2000 and December 2002 . Hospital patient data for that period, however, is not available and is not reflected in the estimates. Estimates of patient exposure for Japan indicate that the number of unique patients taking zonisamide is about 1,185,177 for time beginning with the approval in Japan through December 2002. Japanese data includes prescription and hospital patient data. Exposure from clinical trials are not included in the U.S. or Japanese exposure estimates. Based on these statistics, the estimated number of patients exposed to zonisamide in the U.S. and Japan is 1,222,453 unique patients. This is a rather conservative estimate, assuring that the number of patients actually exposed to zonisamide is unlikely to be higher than the estimate provided. Similarly, the incidences of rhabdomyolysis estimated herein are unlikely to be higher than calculated. […] For the one (1) case reported in Japan, this amounts to an estimated incidence of 1:1,185,177 based upon estimated Japanese exposure. For the one (1) case reported in the US, this represents an estimated incidence of 1:37,276 based upon estimated US exposure. These two (2) cases of CPK increase represent a combined estimated incidence of 1:611,227 based upon the combined estimates of Japanese and US exposure. Thus, the overall estimated incidences of elevated CPK are 1:395,059 for Japanese cases, 1:18,638 for US cases and 1:244,491 for both Japanese and US cases, based on combining the reported cases of rhabdomyolysis and elevated CPK (the standard surrogate marker of muscle breakdown and typically seen in rhabdomyolysis).
# Combining all the above cases of rhabdomyolysis and CPK increase, the estimated incidences of any patient who has experienced an elevated CPK (marker of muscle breakdown) are 1:400,000 for Japanese cases and 1:18,000 for US cases.
# [7] = tested on: cultured mouse spinal cord neurons; conditions: 10-30 μg/mL, cited from earlier work
# [8] = tested on: T-type Ca2+ currents; conditions: in vitro; cited from earlier work
# [9] = tested on: dopaminergic and serotonergic neurotransmission; conditions: in vivo microdialysis; cited from earlier work
smiles,measurement,setting,value
"NS(=O)(=O)Cc1noc2ccccc12 [zonisamide, 1,2-benzisoxazole-3-methanesulfonamide]",neuronal or glial uptake of [3H]-GABA,[1],without affecting
same,frequency of side effects by dose,[2]; doses of 300 mg per day and above,more frequent
same,half-life,"[2]; human, in vivo",long half-life
same,hepatic enzyme induction,"[2]; human, in vivo",not known to be a hepatic enzyme inducer
same,time required to achieve steady state levels,[2]; upon reaching a stable dose or following dosage adjustment,up to two weeks
same,effect on sodium channels,[3],blocks sodium channels
same,binding to GABA/benzodiazepine receptor ionophore complex,[4],binds to the GABA/benzodiazepine receptor ionophore complex in an allosteric fashion
same,changes in chloride flux,[4],does not produce changes in chloride flux
same,carbonic anhydrase inhibition compared to acetazolamide,[5],1/50
same,CPK increase cases recovered,"[6]; human, in vivo",2 cases
same,cases fulfilling the criteria of potential rhabdomyolysis cases,"[6]; human, in vivo",10 cases
same,cases of CPK increase with no or only weak confounding factors present,"[6]; human, in vivo",2 cases
same,cases of rhabdomyolysis with no or only weak confounding factors present,"[6]; human, in vivo",3 cases
same,cases reported as CPK increase,"[6]; human, in vivo",3 cases
same,cases reported as rhabdomyolysis,"[6]; human, in vivo",7 cases
same,combined estimated incidence of CPK increase,"[6]; human, in vivo","1:611,227"
same,rhabdomyolysis cases not recovered,"[6]; human, in vivo",2 cases
same,rhabdomyolysis cases recovered,"[6]; human, in vivo",2 cases
same,rhabdomyolysis cases recovering at time of report,"[6]; human, in vivo",1 cases
same,time to development of CPK increase after initiation of zonisamide treatment,"[6]; human, in vivo",two (2) days and six (6) weeks
same,time to development of rhabdomyolysis after initiation of zonisamide treatment,"[6]; human, in vivo",two (2) weeks and nine (9) years
same,rhabdomyolysis cases with fatal outcome,[6]; of 7 rhabdomyolysis cases,2 cases
same,postsynaptic GABA or glutamate responses,[7]; cultured mouse spinal cord neurons,without affecting
same,synaptically-driven electrical activity,[7],suppresses
same,"effect on voltage-dependent, transient inward currents (T-type Ca2+ currents)",[8],reduces
same,dopaminergic and serotonergic neurotransmission,[9],facilitates
